Results reported in patent publication US8207217B2 (Apotex Technologies Inc, priority 2007, dated 2012).

What was measured:
[1] = Speciation plot / pH of aqueous solution (Hyperquad Simulation & Speciation, experimentally determined pKas); assay type: physicochemical
Text: We have determined that an advantageous salt for use in pharmaceutical preparations is the mono-sodium salt of the D-isoglutamyl-D-tryptophan, which can be formally represented by formula III, which is the predominant pharmaceutical salt at neutral pH. This takes advantage of the fact that the amino acid is a zwitterion. We have determined that the mono-sodium salt as shown in formula III is the most preferred salt in pharmaceutical preparations. The di-sodium salt of formula II is the predominant species at a pH of about 12 or above. A solution of di-sodium salt in water will have a pH of about 12 and therefore it is unsuitable for use in a liquid formulation. Adjustment of a solution of the di-sodium salt back to a pH of about 7 to about 7.4, in fact produces the mono-sodium salt as the predominant species in solution.
FIG. 1 is a speciation plot of the dipeptide H-D-iGlu-D-Trp-OH and its salt calculated with the software Hyperquad Simulation & Speciation using experimentally determined pKas of the acid and amine groups. LH2=H-D-iGlu-D-Trp-OH in diacid form represented by a compound of formula I, LH=mono carboxylic acid salt such as the mono-sodium salt represented by a compound of formula III, L=dicarboxylic acid salt such as the di-sodium salt represented by a compound of formula II, LH3=acid addition salt of H-D-iGlu-D-Trp-OH such as the mono hydrochloride salt of a compound of formula I wherein the NH2 is protonated. The X axis provides the pH of the solution. The Y axis reports the molar fraction of the species present at a particular pH. Note: % formation relative to L is the default terminology of the software. The concentration of 0.5M is used to reflect the equivalency of 1 gm of thymodepressin in 6 ml water during isolation purposes.
Depending on its concentration, the pH of a solution of di-sodium salt is more than about 8.2. A solution containing 100% of the di-sodium salt has pH of greater than about 11.5 as per speciation plot (FIG. 1). The high pH is unsuitable for dosing to human as a solution. pH adjustment from about 7.2 to about 7.4 with mineral acid introduces additional salt, for example, sodium chloride into the formulation.

[2] = Hygroscopicity of the solid in air; assay type: physicochemical
Protocol: A powdery or amorphous form of a compound, intended for pharmaceutical use may give rise to manufacturing problems due to bulk density issues, hygroscopicity and variable water content that cannot be corrected by vacuum drying. D-isoglutamyl-D-tryptophan is a dipeptide and the drying of an amorphous form at elevated temperature, for example, 80-100° C. under vacuum is not recommended. Thus, there are serious difficulties experienced during the purification of the di-sodium salt of D-isoglutamyl-D-tryptophan and obtaining the pure di-sodium salt on a manufacturing scale. Further, as discussed above, there is no published procedure for its preparation.

[3] = Solubility in water; assay type: physicochemical
Protocol: A solution of D-isoglutamyl-D-tryptophan and sodium hydroxide in water is prepared by adding solid D-isoglutamyl-D-tryptophan to sodium hydroxide solution. […] Sodium hydroxide is chosen based on the convenience in obtaining sodium hydroxide solution, however other sodium bases such as sodium hydride, sodium carbonate, sodium bicarbonate can be used. These chemicals are obvious chemical equivalents to sodium hydroxide for step (a) of the process. In step (b), the solution is filtered to remove any particulates prior to proceeding to step (c).

[4] = oral drug in traditional tablet or capsule form; cited from earlier work

di-sodium salt of D-isoglutamyl-D-tryptophan
pH of a solution containing 100% of the di-sodium salt ([1]; as per speciation plot (FIG. 1)): greater than 11.5 | pH of a solution ([1]; depending on its concentration): more than 8.2 | pH of a solution in water ([1]; solution of di-sodium salt in water): about 12 | behaviour of the freeze-dried solid in air ([2]; freeze-dried): turning into a gel in a matter of minutes in air | hygroscopicity ([2]; solid form): extremely hygroscopic

N[C@H](CCC(=O)N[C@H](Cc1c[nH]c2ccccc12)C(=O)O)C(=O)O [D-isoglutamyl-D-tryptophan]
fraction present in the mono-sodium salt form ([1]; in water at a pH of about 7.0 to about 7.4, 0.5M): about 100% | solubility in water [3]: < 20 mg per ml | oral bioavailability [4]: not bioavailable
